Legend:
TF = conditions: in vitro, cultured monocytic cells including human peripheral monocytes; cited from earlier work
thrombomodulin (“TM”) = conditions: in vitro, cultured monocytic cells including human peripheral monocytes; cited from earlier work
[1] = system: women with metastatic breast cancer; conditions: cited from earlier work
[2] = system: patients suffering from non-small-cell carcinoma of the lung; conditions: in vivo, sc; cited from earlier work
[3] = system: patients with prostate cancer; test: Phase II clinical trial: Taxotere with or without calcitriol by HDPA, cardiovascular events; assay type: in vivo, human; conditions: 125 patients per arm; calcitriol three 15 μg capsules once a week on the day prior to Taxotere 75 mg/m^2
Excerpt: Two hundred fifty patients with prostate cancer were enrolled at 58 centers in the United States and Canada. All patients in the study received chemotherapy treatment with Taxotere®, a drug in the taxoid class of chemotherapeutic agents. […] Oral dexamethasone is also given along with the Taxotere® to minimize certain side effects (allergic reactions and fluid retention) associated with Taxotere®.
In addition to Taxotere® and dexamethasone, half of the patients were randomly treated with calcitriol and the other half received a placebo. Calcitriol was administered as three capsules of 15 μg each once a week on the day prior to chemotherapy. […] The same Taxotere® doses of 75 mg/m^2 body surface area were administered to the patients receiving Taxotere® alone or Taxotere® in combination with calcitriol.

[4] = system: venous thromboembolism (VTE); conditions: in vivo; cited from earlier work
[5] = system: patients receiving heparin; conditions: cited from earlier work

C=C1/C(=C\C=C2/CCC[C@]3(C)[C@@H]([C@H](C)CCCC(C)(C)O)CC[C@@H]23)C[C@@H](O)C[C@@H]1O [calcitriol, 1α,25-dihydroxyvitamin D3]
Expression of TF (TF): down-regulating the expression
Expression of the anticoagulant thrombomodulin (thrombomodulin (“TM”)): up-regulating the expression

epoetin alfa: erythropoiesis-stimulating agent, FDA-approved drug EPOGEN
Kaplan-Meier estimated 12-month survival rate ([1]; in vivo): 70%
Mortality at 4 months ([1]; weekly epoetin alfa for up to a year, interim results): 8.7%
Rate of fatal thrombotic events ([1]; weekly epoetin alfa, interim results): 1.1%
Median survival versus placebo [2]: significant difference in the median survival in favor of patients on the placebo arm

CC(=O)O[C@@]12CO[C@@H]1C[C@H](O)[C@@]1(C)C(=O)[C@H](O)C3=C(C)[C@@H](OC(=O)[C@H](O)[C@@H](NC(=O)OC(C)(C)C)c4ccccc4)C[C@@](O)([C@@H](OC(=O)c4ccccc4)[C@H]21)C3(C)C [Taxotere®]
Patients who developed deep vein thrombosis or thrombophlebits [3]: six of 125
Patients who developed myocardial infractions or myocardial ischemia [3]: two of 125
Patients who had a stroke (cerebrovascular events) [3]: two of 125

erythropoietin: erythropoiesis-stimulating agent
Association with VTE [4]: significantly associated with VTE

heparin
Patients with immunologic reaction resulting in heparin-induced thrombocytopenia (HIT), average [5]: 5%

Reference: US20080069814A1, “Prevention of Thrombotic Disorders with Active Vitamin D Compounds or Mimics Thereof” (Novacea, Inc., priority 2005, published 2008)
